Measured values as given in patent US8802597B2, “Herbicidal pyrimidines” (E I du Pont de Nemours and Company, priority 2003, dated 2014).

Tests used:
Format in all cases: in vivo
[1] = test system: barnyardgrass (Echinochloa crus-galli); test: Test B flooded paddy test; conditions: Flood, scale 0 to 100
In short: (§1)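 Rice, umbrella sedge, duck salad and barnyardgrass grown to 2-leaf stage under flooded paddy conditions and treated with formulated test chemicals. Kept in greenhouse 13–15 days, then visually rated against untreated controls on a 0–100 scale (0 no effect, 100 complete control).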

rice (Oryza sativa) = test: Test B flooded paddy test; conditions: Flood, scale 0 to 100
In short: as §1

[2] = test system: umbrella sedge (Cyperus difformis); test: Test B flooded paddy test; conditions: Flood, scale 0 to 100
In short: as §1

[3] = test system: duck salad (Heteranthera limosa); test: Test B flooded paddy test; conditions: Flood, scale 0 to 100
In short: as §1

[4] = test system: Surinam grass (Brachiaria decumbens); test: Test B pre/postemergence; conditions: for Surinam Grass plant response rating: Postemergence; for Plant response rating, Surinam Grass: Preemergence
In short: (§2)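 Visual rating, 0 (no effect) to 100 (complete control) versus controls, taken 13–15 days after treatment in greenhouse. Compounds formulated in non-phytotoxic solvent plus surfactant; pre: sprayed after seeding; post: plants at 1- to 4-leaf stage, 2–18 cm.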

[5] = test system: lambsquarters (Chenopodium album); test: Test B pre/postemergence; conditions: for Lambsquarters plant response rating: Postemergence; for Plant response rating, Lambsquarters: Preemergence
In short: as §2

[6] = test system: barnyardgrass (Echinochloa crus-galli); test: Test B pre/postemergence; conditions: for Barnyardgrass plant response rating: Postemergence; for Plant response rating, Barnyardgrass: Preemergence
In short: as §2

[7] = test system: pigweed (Amaranthus retroflexus); test: Test B pre/postemergence; conditions: for Pigweed plant response rating: Postemergence; for Plant response rating, Pigweed: Preemergence
In short: as §2

[8] = test system: morningglory (Ipomoea coccinea); test: Test B pre/postemergence; conditions: for Morningglory plant response rating: Postemergence; for Plant response rating, Morningglory: Preemergence
In short: as §2

[9] = test system: giant foxtail (Setaria faberii); test: Test B pre/postemergence; conditions: for Foxtail, Giant plant response rating: Postemergence; for Plant response rating, Foxtail, Giant: Preemergence
In short: as §2

corn (Zea mays) = test: Test B pre/postemergence; conditions: for Corn plant response rating: Postemergence; for Plant response rating, Corn: Preemergence
In short: as §2

[10] = test system: velvetleaf (Abutilon theophrasti); test: Test B pre/postemergence; conditions: for Velvetleaf plant response rating: Postemergence; for Plant response rating, Velvetleaf: Preemergence
In short: as §2

[11] = test system: crabgrass (Digitaria sanguinalis); test: Test B pre/postemergence; conditions: for Crabgrass plant response rating: Postemergence; for Plant response rating, Crabgrass: Preemergence
In short: as §2

[12] = test system: wheat (Triticum aestivum); test: Test B pre/postemergence; conditions: for Wheat plant response rating: Postemergence; for Plant response rating, Wheat: Preemergence
In short: as §2

[13] = test system: cocklebur (Xanthium strumarium); test: Test B pre/postemergence; conditions: for Cocklebur plant response rating: Postemergence; for Plant response rating, Cocklebur: Preemergence
In short: as §2

[14] = test system: blackgrass (Alopecurus myosuroides); test: Test B postemergence; conditions: scale 0 to 100 (0 no effect, 100 complete control)
In short: as §2

wild oat (Avena fatua) = test: Test B postemergence; conditions: scale 0 to 100 (0 no effect, 100 complete control)
In short: as §2

[15] = 62 g ai/ha, scale 0 to 100 (0 no effect, 100 complete control)
[16] = 125 g ai/ha, scale 0 to 100 (0 no effect, 100 complete control)
[17] = 62 g ai/ha, scale 0 to 100, 0 no effect, 100 complete control

Structure (SMILES): Nc1nc(C2CC2)nc(C(=O)O)c1Cl [Compound 135, 6-amino-5-chloro-2-cyclopropyl-4-pyrimidinecarboxylic acid]
- Plant response rating, Barnyardgrass ([1]; 125 g ai/ha): 30
- Plant response rating, Barnyardgrass ([1]; 500 g ai/ha): 80
- Plant response rating, Rice (rice (Oryza sativa); 125 g ai/ha): 20
- Plant response rating, Rice (rice (Oryza sativa); 500 g ai/ha): 60
- Plant response rating, Sedge, Umbrella ([2]; 125 g ai/ha): 70
- Plant response rating, Sedge, Umbrella ([2]; 500 g ai/ha): 80
- Plant response rating, Ducksalad ([3]; 125 g ai/ha): 60
- Plant response rating, Ducksalad ([3]; 500 g ai/ha): 90
- Surinam Grass plant response rating [4, 15]: 80
- Surinam Grass plant response rating [4, 16]: 80
- Plant response rating, Surinam Grass [4, 17]: 80
- Plant response rating, Surinam Grass [4, 16]: 90
- Lambsquarters plant response rating [5, 15]: 100
- Lambsquarters plant response rating [5, 16]: 100
- Plant response rating, Lambsquarters [5, 17]: 100
- Plant response rating, Lambsquarters [5, 16]: 100
- Barnyardgrass plant response rating [6, 15]: 70
- Barnyardgrass plant response rating [6, 16]: 90
- Plant response rating, Barnyardgrass [6, 17]: 70
- Plant response rating, Barnyardgrass [6, 16]: 90
- Pigweed plant response rating [7, 15]: 100
- Pigweed plant response rating [7, 16]: 100
- Plant response rating, Pigweed [7, 17]: 100
- Plant response rating, Pigweed [7, 16]: 100
- Morningglory plant response rating [8, 15]: 100
- Morningglory plant response rating [8, 16]: 100
- Plant response rating, Morningglory [8, 17]: 100
- Plant response rating, Morningglory [8, 16]: 100
- Foxtail, Giant plant response rating [9, 15]: 80
- Foxtail, Giant plant response rating [9, 16]: 80
- Plant response rating, Foxtail, Giant [9, 17]: 60
- Plant response rating, Foxtail, Giant [9, 16]: 90
- Corn plant response rating (corn (Zea mays); [15]): 50
- Corn plant response rating (corn (Zea mays); [16]): 80
- Plant response rating, Corn (corn (Zea mays); [17]): 50
- Plant response rating, Corn (corn (Zea mays); [16]): 80
- Velvetleaf plant response rating [10, 15]: 100
- Velvetleaf plant response rating [10, 16]: 100
- Plant response rating, Velvetleaf [10, 17]: 90
- Plant response rating, Velvetleaf [10, 16]: 100
- Crabgrass plant response rating [11, 15]: 60
- Crabgrass plant response rating [11, 16]: 70
- Plant response rating, Crabgrass [11, 17]: 80
- Plant response rating, Crabgrass [11, 16]: 90
- Wheat plant response rating [12, 15]: 40
- Wheat plant response rating [12, 16]: 60
- Plant response rating, Wheat [12, 17]: 70
- Plant response rating, Wheat [12, 16]: 90
- Cocklebur plant response rating [13, 15]: 100
- Cocklebur plant response rating [13, 16]: 100
- Plant response rating, Cocklebur [13, 17]: 100
- Plant response rating, Cocklebur [13, 16]: 100
- Blackgrass plant response rating ([14]; 62 g ai/ha): 60
- Blackgrass plant response rating ([14]; 125 g ai/ha): 70
- Oat, Wild plant response rating (wild oat (Avena fatua); 62 g ai/ha): 60
- Oat, Wild plant response rating (wild oat (Avena fatua); 125 g ai/ha): 60

Structure (SMILES): Nc1nc(-c2ccc(Br)cc2)nc(C(=O)O)c1Br [Compound 136]
- Plant response rating, Barnyardgrass ([1]; 125 g ai/ha): 0
- Plant response rating, Barnyardgrass ([1]; 500 g ai/ha): 20
- Plant response rating, Rice (rice (Oryza sativa); 125 g ai/ha): 0
- Plant response rating, Rice (rice (Oryza sativa); 500 g ai/ha): 40
- Plant response rating, Sedge, Umbrella ([2]; 125 g ai/ha): 90
- Plant response rating, Sedge, Umbrella ([2]; 500 g ai/ha): 90
- Plant response rating, Ducksalad ([3]; 125 g ai/ha): 90
- Plant response rating, Ducksalad ([3]; 500 g ai/ha): 90
- Surinam Grass plant response rating [4, 15]: 70
- Surinam Grass plant response rating [4, 16]: 80
- Plant response rating, Surinam Grass [4, 17]: 10
- Plant response rating, Surinam Grass [4, 16]: 50
- Lambsquarters plant response rating [5, 15]: 100
- Lambsquarters plant response rating [5, 16]: 100
- Plant response rating, Lambsquarters [5, 17]: 90
- Plant response rating, Lambsquarters [5, 16]: 100
- Barnyardgrass plant response rating [6, 15]: 70
- Barnyardgrass plant response rating [6, 16]: 90
- Plant response rating, Barnyardgrass [6, 17]: 30
- Pigweed plant response rating [7, 15]: 90
- Pigweed plant response rating [7, 16]: 100
- Plant response rating, Pigweed [7, 17]: 80
- Plant response rating, Pigweed [7, 16]: 100
- Morningglory plant response rating [8, 15]: 40
- Morningglory plant response rating [8, 16]: 100
- Plant response rating, Morningglory [8, 17]: 10
- Plant response rating, Morningglory [8, 16]: 40
- Foxtail, Giant plant response rating [9, 15]: 60
- Foxtail, Giant plant response rating [9, 16]: 70
- Plant response rating, Foxtail, Giant [9, 17]: 10
- Plant response rating, Foxtail, Giant [9, 16]: 50
- Corn plant response rating (corn (Zea mays); [15]): 40
- Corn plant response rating (corn (Zea mays); [16]): 70
- Plant response rating, Corn (corn (Zea mays); [17]): 0
- Plant response rating, Corn (corn (Zea mays); [16]): 0
- Velvetleaf plant response rating [10, 15]: 80
- Velvetleaf plant response rating [10, 16]: 90
- Plant response rating, Velvetleaf [10, 17]: 60
- Plant response rating, Velvetleaf [10, 16]: 80
- Crabgrass plant response rating [11, 15]: 70
- Crabgrass plant response rating [11, 16]: 80
- Plant response rating, Crabgrass [11, 17]: 70
- Plant response rating, Crabgrass [11, 16]: 80
- Wheat plant response rating [12, 15]: 20
- Wheat plant response rating [12, 16]: 60
- Plant response rating, Wheat [12, 17]: 50
- Plant response rating, Wheat [12, 16]: 70
- Cocklebur plant response rating [13, 15]: 90
- Cocklebur plant response rating [13, 16]: 100
- Plant response rating, Cocklebur [13, 17]: 40
- Plant response rating, Cocklebur [13, 16]: 70
- Blackgrass plant response rating ([14]; 62 g ai/ha): 70
- Blackgrass plant response rating ([14]; 125 g ai/ha): 70
- Oat, Wild plant response rating (wild oat (Avena fatua); 62 g ai/ha): 20
- Oat, Wild plant response rating (wild oat (Avena fatua); 125 g ai/ha): 50
